According to PubChem BioAssay (NCI):
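The compound was tested at five concentrations on cells cultured in 96-well plates, with a 48-hour exposure period. GI50 is the concentration that inhibits growth by half. TGI denotes the concentration required for complete inhibition of growth.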

Experiments:
Assay in all cases: growth of human tumour cells (NCI), 48 h
[1] = tested on: HL-60(TB) leukemia
[2] = tested on: MDA-N
[3] = tested on: NCI/ADR-RES ovarian
[4] = tested on: OVCAR-4 ovarian
[5] = tested on: DU-145 prostate
[6] = tested on: A549 NSCLC
[7] = tested on: HCC-2998 colon
[8] = tested on: RPMI-8226 leukemia
[9] = tested on: COLO 205 colon
[10] = tested on: PC-3 prostate
[11] = tested on: EKVX NSCLC
[12] = tested on: U251 CNS
[13] = tested on: HOP-92 NSCLC
[14] = tested on: SR leukemia
[15] = tested on: HCT-116 colon

SMILES | TGI [1] [µM] | TGI [2] [µM] | TGI [3] [µM] | TGI [4] [µM] | TGI [5] [µM] | TGI [6] [µM] | TGI [7] [µM] | TGI [8] [µM] | TGI [9] [µM] | TGI [10] [µM] | TGI [11] [µM] | TGI [12] [µM] | TGI [13] [µM] | TGI [14] [µM] | TGI [15] [µM] | GI50 [3] [µM] | GI50 [4] [µM] | GI50 [6] [µM] | GI50 [12] [µM] | GI50 [13] [µM]
CC(=O)O[C@H]1[C@@H]2OC(=O)[C@@](O)(CC3CCCO3)[C@@H]2CC(=O)[C@](C)(O)CC/C=C(\C)CCC[C@@H]1C (some centres undefined) | 57.8 | 49.4 | > 100 | > 100 | > 100 | > 100 | > 100 | > 100 | 34.5 | > 100 | > 100 | > 100 | 87.7 |  |  |  |  |  |  | 
CCOC(=O)c1c(N)sc2c1C(C)(C(=O)OCC)CC2 (centres undefined) | > 100 | > 100 |  |  |  | > 100 | > 100 | > 100 | > 100 | > 100 | > 100 | > 100 | > 100 | > 100 | > 100 |  |  |  |  | 
Cc1ccc([N+](=O)[O-])cc1NC(=O)/C(=N/NC(=S)NN)C1SC(=S)NC1=O (centres undefined) | > 100 |  |  | > 100 |  | > 100 |  | > 100 | > 100 |  | > 100 | > 100 | > 100 | > 100 | > 100 |  |  |  |  | 
COC(=O)C(C#CCCCCC#CC(NC(=O)OCc1ccccc1)(C(=O)OC)C(F)(F)F)(NC(=O)OCc1ccccc1)C(F)(F)F (centres undefined) | > 100 |  |  | > 100 |  | > 100 | > 100 | > 100 | > 100 |  | > 100 | > 100 | > 100 |  | > 100 |  |  |  |  | 
CCCCc1ccc(Nc2nc(SC)c3[nH]cnc3n2)cc1 | > 46.4 |  | > 100 | > 100 | > 100 | > 100 | > 100 | > 100 | > 100 | > 100 | > 100 | > 100 | > 100 | 9.69 | > 100 |  |  |  |  | 
Cc1cc2c(cc1Cl)S(=O)(=O)OC(c1ccc([N+](=O)[O-])cc1)=N2 | > 100 |  | > 100 | > 100 | > 100 | > 100 | > 100 | > 100 | > 100 | > 100 | > 100 | > 100 | > 100 | > 100 | > 100 |  |  |  |  | 
CCOc1ccc(/C(Cl)=C(\C=O)c2ccc(OC)c(OC)c2)cc1OCC | 62.7 |  |  | > 100 |  | > 100 | > 100 | > 100 | > 100 |  | > 100 | 97.5 | > 100 | 50.8 | > 100 |  |  |  |  | 
CC(C)C1=CC23CCC4C(C)(C(=O)O)CCCC4(C)C2CC1C1C(=O)N(c2ccccc2N2C(=O)C4C5CC6C7(C)CCCC(C)(C(=O)O)C7CCC6(C=C5C(C)C)C4C2=O)C(=O)C13 (centres undefined) |  | 19.4 |  | 38.8 | 21.8 | 38.7 | 16.1 | > 100 | 17.8 | 14 | 17.9 | 12 | 32.5 | 17.3 | 18.2 |  |  |  |  | 
CC1=NN(c2nc(N)nc(CSc3nc4n(c(=S)n3)CCN4)n2)C(C)(C)C1 | > 100 |  | > 100 | > 100 |  |  | > 100 | > 100 | > 100 | > 100 | > 100 | > 100 | 44.3 | > 100 | > 100 |  |  |  |  | 
CN(C)CCN(C)c1ccc2c(=O)n(CCN(C)C)c(=O)n3c4ccccc4c(=O)c1c23 |  | 2.89 | 16.9 | 2.27 | 1.3 | 22.7 | 2.05 | 3.32 | 3.03 | 21.3 | 6.92 | 8.93 | 1.82 |  | 3.14 |  |  |  |  | 
Cc1cn(C2CC(O)C(COC(=O)NCCC(F)(F)C(F)(F)C(F)(F)C(F)(F)F)O2)c(=O)[nH]c1=O (centres undefined) | > 100 | > 100 |  | > 100 | > 100 | > 100 | > 100 |  | > 100 | > 100 | > 100 | > 100 | > 100 | > 100 | > 100 |  |  |  |  | 
Cc1cc(N(CCC#N)CCC#N)ccc1/C(N=Nc1ccc(C(=O)O)cc1)=N\NC(=O)c1cc(Cl)ccc1O |  |  | > 100 | 97 | > 100 | > 100 | > 100 | > 100 | > 100 | > 100 | > 100 | 63.1 |  | > 100 | > 100 |  |  |  |  | 
COc1cccc([C@H]2C/C(=N\NC(=O)C(=O)N[C@@H](C)c3ccccc3)c3ccccc3N2)c1 |  |  | 0.0535 | > 100 | 15.6 | > 100 | 0.0495 | 0.0503 | 13.1 | > 100 | > 100 | > 100 | > 100 |  | 12 | < 0.01 | 45.3 | 0.0366 | 0.0325 | 0.422
COc1ccc(N=Cc2ccc(N(CCC#N)S(=O)(=O)c3ccccc3)cc2)cc1 | > 100 |  |  | > 100 |  | > 100 |  | > 100 | > 100 |  | > 100 | > 100 | > 100 | > 100 | > 100 |  |  |  |  | 
Cc1nn(C(=O)Cc2ccccc2)c2c1C(c1ccc(O)cc1O)SC(N)=N2 (centres undefined) | > 100 | > 100 |  |  | > 100 | > 100 | > 100 | > 100 | > 100 | > 100 | > 100 |  |  | > 100 | > 100 |  |  |  |  | 
CN(C)C(=S)/N=c1\ssc(=S)n1Cc1cccnc1 | > 57.8 |  | 4.51 | > 100 | > 64.3 | > 100 | > 100 | > 100 | 32.1 | > 100 | > 100 | > 94.9 | > 100 | > 100 | > 100 |  |  |  |  | 
